Source: the supplement of paper PMC3974653
Structures can show the parent of a compound that is named as a salt.

Tested on: MTT (mouse pheochromocytoma)
Experiment: IC50 of cell viability (ATP content)
Settings: (24 or 48 h)
Summary of the method: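 After overnight culture at 37°C, 5% CO2 in white 1536-well plates, MTT mouse pheochromocytoma cells were given 23 nl of library compound in DMSO by pintool across 8 concentrations, spanning final 0.5 nM to 46 µM. Following 24 or 48 hrs, CellTiter-Glo luminescence was read after 15 minutes and normalised against positive-control (100%) and DMSO (0%) wells. A four-parameter logistic model provided the IC50.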

SMILES | IC50 of cell viability
CC(C)(C#N)c1cc(Cn2cncn2)cc(C(C)(C)C#N)c1 [Anastrozole] | > 46 µM
C/C=C/c1ccc(OC)cc1 [Anethole] | > 46 µM
CNC(=O)Oc1ccccc1C(=O)Nc1ccccc1 [Anilamate] | > 46 µM
Nc1ccccc1.O=[N+]([O-])O [Anilinium nitrate] | > 46 µM
CCCC(CCC)C(=O)OC1C[C@H]2CC[C@@H](C1)[N+]2(C)C (stereo partly drawn) [Anisotropine methyl bromide] | > 46 µM
C1C\N=C(\CN(CC2=CC=CC=C2)C3=CC=CC=C3)N1 [Antazoline hydrochloride] | > 46 µM
CCCC(=O)O[C@@]1([C@@H](C)C[C@H]2[C@@H]3CCC\4=C\C(=O)\C=C/[C@@]4(C)[C@@]3(F)[C@H](O)C[C@]12C)C(=O)COC(=O)CC [Antebate] | > 46 µM
O=C1c2c(O)cccc2Cc2cccc(O)c21 [Anthralin] | > 46 µM
O=C1c2ccccc2C(=O)c2ccccc21 [Anthraquinone] | > 46 µM
CC1=NN=C2C\N=C(C3=CC=CC=C3Cl)/C4=C(SC(=C4)CCC(=O)N5CCOCC5)[N]12 [Apafant] | > 46 µM
CN[C@H]1[C@H](O[C@@H]2O[C@@H](CO)[C@H](N)[C@H](O)[C@@H]2O)O[C@H]2C[C@@H](N)[C@@H](O[C@H]3[C@H](O)[C@H](O)[C@H](N)C[C@@H]3N)O[C@@H]2[C@H]1O [Apramycin] | > 46 µM
C[C@@H](O[C@@H]1OCCN(Cc2nc(=O)[nH][nH]2)[C@@H]1c1ccc(F)cc1)c1cc(C(F)(F)F)cc(C(F)(F)F)c1 [Aprepitant] | > 46 µM
COC(=O)C1=C(C)NC(C)=C(C(=O)OCC(C)=O)C1c1ccccc1[N+](=O)[O-] (stereo not drawn) [Aranidipine] | > 46 µM
N=C(N)NCCC[C@H](NC(=O)[C@@H]1CCCN1C(=O)[C@@H]1CSSC[C@H](N)C(=O)N[C@@H](Cc2ccc(O)cc2)C(=O)N[C@@H](Cc2ccccc2)C(=O)N[C@@H](CCC(N)=O)C(=O)N[C@@H](CC(N)=O)C(=O)N1)C(=O)NCC(N)=O [Argipressin acetate] | > 46 µM
Nc1ccc([As](=O)(O)O)cc1 [Arsanilic acid] | > 46 µM
CO[C@H]1O[C@@H]2O[C@@]3(C)CC[C@H]4[C@H](C)CC[C@@H]([C@H]1C)[C@@]24OO3 [Artemetero] | > 46 µM
CCCN[C@@H](C)C(=O)Nc1c(C)csc1C(=O)OC [Articaine hydrochloride] | > 46 µM
CCCCCCCCCCCCCCCC(=O)OCC(O)C1OC(=O)C(O)=C1O (stereo not drawn) [Ascorbyl palmitate] | > 46 µM
CN1C[C@@H]2c3ccccc3Oc3ccc(Cl)cc3[C@H]2C1 [Asenapine] | > 46 µM
COC(=O)[C@H](Cc1ccccc1)NC(=O)[C@@H](N)CC(=O)O [Aspartame] | > 46 µM
O=C(Nc1ccc([S+](=O)([O-])N2CCOCC2)cc1)c1cc(Cl)ccc1N[S+](=O)([O-])c1ccc(Cl)s1 [Ataciguat] | > 46 µM
COC(=O)N[C@H](C(=O)N[C@@H](Cc1ccccc1)[C@@H](O)CN(Cc1ccc(-c2ccccn2)cc1)NC(=O)[C@@H](NC(=O)OC)C(C)(C)C)C(C)(C)C [Atazanavir] | > 46 µM
CCC1(c2cnc[nH]2)Cc2ccccc2C1 [Atipamezole Hydrochloride] | > 46 µM
CCC1(c2cnc[nH]2)Cc2ccccc2C1 [Atipamezole] | > 46 µM

SMILES | IC50 of cell viability
CCOc1ccc(C[C@H]2NC(=O)CCSSC[C@@H](C(=O)N3CCC[C@H]3C(=O)N[C@@H](CCCN)C(=O)NCC(N)=O)NC(=O)[C@H](CC(N)=O)NC(=O)[C@H]([C@@H](C)O)NC(=O)[C@H]([C@@H](C)CC)NC2=O)cc1 [Atosiban] | > 46 µM
O\C1=C(/C2CCC(CC2)C3=CC=C(Cl)C=C3)C(=O)C4=C(C=CC=C4)C1=O (stereo not drawn) [Atovaquone] | > 46 µM
COc1ccc(C[C@@H]2c3cc(OC)c(OC)cc3CC[N@@+]2(C)CCC(=O)OCCCCCOC(=O)CC[N@+]2(C)CCc3cc(OC)c(OC)cc3[C@H]2Cc2ccc(OC)c(OC)c2)cc1OC.O=S(=O)([O-])c1ccccc1.O=S(=O)([O-])c1ccccc1 [Atracurium besylate] | > 46 µM
C[N@+]1([O-])[C@H]2CC[C@H]1C[C@H](OC(=O)[C@@H](CO)c1ccccc1)C2 [Atropine oxide] | > 46 µM
C[N@+]1([O-])[C@@H]2CC[C@@H]1C[C@@H](OC(=O)[C@@H](CO)c1ccccc1)C2 [Atropine-N-oxide hydrochloride] | > 46 µM
CN1[C@@H]2CC[C@H]1CC(OC(=O)C(CO)c1ccccc1)C2 (stereo partly drawn) [Atropine] | > 46 µM
CNC(=O)c1ccccc1Sc1ccc2c(/C=C/c3ccccn3)n[nH]c2c1 [Axitinib] | > 46 µM
O=C(CCCN1CCN2CCCC2C1)c1ccc(F)cc1 (stereo not drawn) [Azabuperona] | > 46 µM
O=C(CCN1CCN2CCCC2C1)N1c2ccccc2Sc2ccc(Cl)cc21 (stereo not drawn) [Azaclorzina] | > 46 µM
Clc1ccc(C2(Cn3cncn3)OCCO2)c(Cl)c1 [Azaconazole] | > 46 µM
OC(c1ccccc1)(c1ccccc1)C1CCNCC1 [Azacyclonol] | > 46 µM
O=C(CCCN1CCN(c2ccccn2)CC1)c1ccc(F)cc1 [Azaperone] | > 46 µM
CCC[C@@H]1C(=O)N2N(C1=O)\C(=N/C3=C2C=C(C)C=C3)N(C)C [Azapropazone] | > 46 µM
CC(=O)OC[C@H]1O[C@H]([C@H](OC(C)=O)[C@@H]1OC(C)=O)N2\N=C/C(=O)NC2=O [Azaribine] | > 46 µM
CN1CC\C(CC1)=C2/C3=CC=CC=C3CCC4=CC=CN=C24 [Azatadine] | > 46 µM
Cn1cnc([N+](=O)[O-])c1Sc1ncnc2nc[nH]c12 [Azathioprine] | > 46 µM
CC[C@H]1OC(=O)[C@H](C)[C@@H](O[C@H]2C[C@@](C)(OC)[C@@H](O)[C@H](C)O2)[C@H](C)[C@@H](O[C@@H]2O[C@H](C)C[C@H](N(C)C)[C@H]2O)[C@](C)(O)C[C@@H](C)CN(C)[C@H](C)[C@@H](O)[C@]1(C)O [Azithromycin] | > 46 µM
[Na+].CC1(C)S[C@H]2[C@H](NC(=O)[C@@H](NC(=O)N3CCNC3=O)C4=CC=CC=C4)C(=O)[N@]2[C@H]1C([O-])=O [Azlocillin sodium salt] | > 46 µM
[O-]/[N+](=N/c1ccccc1)c1ccccc1 [Azoxybenzene] | > 46 µM
CO/C=C(/C(=O)OC)c1ccccc1Oc1cc(Oc2ccccc2C#N)ncn1 [Azoxystrobin] | > 46 µM
C[C@H]1[C@H](NC(=O)/C(=N/OC(C)(C)C(=O)O)c2csc(N)n2)C(=O)N1[S+](=O)([O-])O [Aztreonam] | > 46 µM
C=CCN1CCc2nc(N)sc2CC1 [B-HT 920] | > 46 µM
CCN1CCc2nc(N)oc2CC1.Cl.Cl [B-HT 933 dihydrochloride] | > 46 µM
NCC(CC(=O)O)c1ccc(Cl)cc1 (stereo not drawn) [BACLOFEN] | > 46 µM
